Experiments:
[1] = target: T1, Gal-1 (Homo sapiens, UniProt P09382); experiment: Competition pull-down with lactose; format: binding; conditions: H14 library; lactose 10 mM; read-out: Surface mapping KD (apparent), competition
T1 construct: made in house; host or cells: E. coli BL21(DE3)
In short: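 His6-tagged proteins immobilized on Co-NTA resin at 64 µM final with 64-member LSM foldamer sublibraries (1 M each, as printed) in pH 7.4 HEPES/NaCl buffers (Ca2+/TCEP per target), 30 min RT; competitor peptides 200 µM final, lactose 10 mM for Gal-1. Bound fractions from LC-MS loss vs protein-free resin; KD assuming 1:1 binding.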

[2] = target: T1, Gal-1; experiment: Pull-down assay with immobilized protein and LSM libraries; format: binding; conditions: H14 library; 1:1 binding assumed; read-out: Surface mapping KD (apparent)
In short: (§1)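 His-tagged protein immobilized on Co-NTA resin (64 µM) in 20 mM HEPES pH 7.4, 150 mM NaCl, equilibrated 30 min at room temperature with foldamer LSM sublibraries at equimolar total concentration. Unbound fractions quantified by HPLC-MS versus protein-free resin control; apparent KD assumes 1:1 binding.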

[3] = target: T2, S100A4 (Homo sapiens, UniProt P26447); experiment: as above; format: binding; conditions: for Kd: H14 library, 1:1 binding assumed, read-out: Surface mapping KD (apparent); for Affinity class of probe (high, medium, low) in pull-down: H14 probes selected for validation
T2 construct: made in house; host or cells: Escherichia coli BL21(DE3)
T2 sequence (P26447 whole entry): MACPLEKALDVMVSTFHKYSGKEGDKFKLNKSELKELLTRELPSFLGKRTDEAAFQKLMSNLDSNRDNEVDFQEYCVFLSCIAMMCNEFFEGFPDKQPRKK
In short: (§2)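 Buffers were HEPES pH 7.4 with 150 mM NaCl, plus 1 mM TCEP and 1 mM CaCl2 (50 mM HEPES) for S100A4 and S100B, 1 mM TCEP for Gal-1, and no additive for RecQ-WH. Immobilized protein at 64 µM was equilibrated 30 min with the LSM sublibrary, and unbound probes were measured by LC-MS.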

[4] = target: T3, S100B (Homo sapiens, UniProt P04271); experiment: as above; format: binding; conditions: for Kd: H14 library, 1:1 binding assumed, read-out: Surface mapping KD (apparent); for Affinity class of probe (high, medium, low) in pull-down: H14 probes selected for validation
T3 construct: made in house; host or cells: Escherichia coli BL21(DE3)
T3 sequence (P04271 1-92): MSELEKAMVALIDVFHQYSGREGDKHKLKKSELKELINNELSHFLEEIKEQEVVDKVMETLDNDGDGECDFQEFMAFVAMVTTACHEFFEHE
In short: as §2

[5] = target: T4, RecQ-WH (Escherichia coli, UniProt P15043); experiment: Competition pull-down with native ligand SSB-Ct8; format: binding, E. coli; conditions: H14 library; competitor peptide 200 µM; read-out: Surface mapping KD (apparent), competition
T4 construct: coding for residues 408– 523 of E. coli RecQ; made in house; host or cells: E. coli BL21(DE3)
T4 sequence (P15043 408-523): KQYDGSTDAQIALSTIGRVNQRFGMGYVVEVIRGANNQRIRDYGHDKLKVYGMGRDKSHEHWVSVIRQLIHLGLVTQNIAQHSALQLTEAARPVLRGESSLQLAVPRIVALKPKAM

[6] = target: T4, RecQ-WH; experiment: Pull-down assay with immobilized protein and LSM libraries; design: species or system E. coli; conditions: H14 library; 1:1 binding assumed; read-out: Surface mapping KD (apparent)
In short: as §1

[7] = target: T5, CaM (Bos taurus, UniProt P62157); experiment: as above; format: binding, bovine; conditions: H14 library; 1:2 stoichiometry assumed; read-out: Surface mapping KD (apparent)
T5 construct: made in house; host or cells: E. coli BL21 (DE3)
In short: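 His-tagged protein immobilized on Co-NTA resin, equilibrated 30 min at room temperature with LSM sublibraries (64 members, […]), equimolar protein to total probe. CaM buffer: 20 mM HEPES pH 7.4, 150 mM NaCl, 5 mM CaCl2. Bound fractions from HPLC-MS loss of unbound probe versus protein-free resin control; Kd derived.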

[8] = target: T3, S100B; experiment: Competition pull-down with native ligand RSK1 (689–735); format: binding; conditions: H14 library; competitor peptide 200 µM; read-out: Surface mapping KD (apparent), competition
[9] = target: T5, CaM; experiment: Competition pull-down with native ligand TRPV1-Ct15; format: binding, bovine; conditions: H14 library; competitor peptide 200 µM; read-out: Surface mapping KD (apparent), competition
[10] = target: T2, S100A4; experiment: Competition pull-down with native ligand NMIIA (1893–1923); format: binding; conditions: H14 library; competitor peptide 200 µM; read-out: Surface mapping KD (apparent), competition

T1 sequence (P09382 whole entry): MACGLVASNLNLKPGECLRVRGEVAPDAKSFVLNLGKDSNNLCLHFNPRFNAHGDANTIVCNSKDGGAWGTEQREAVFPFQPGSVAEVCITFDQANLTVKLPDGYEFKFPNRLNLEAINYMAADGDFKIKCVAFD

Row | Kd [10] [µM] | Binding ([3]; H14 probes) | Binding ([4]; H14 probes) | SMILES | Kd [1] [µM] | Kd [2] [µM] | Kd [3] [µM] | Kd [4] [µM] | Kd [5] [µM] | Kd [6] [µM] | Kd [7] [µM] | Kd [8] [µM] | Kd [9] [µM] | Affinity class of probe (high, medium, low) in pull-down [3] | Affinity class of probe (high, medium, low) in pull-down [4]
1 |  |  |  | C[C@@H](CC(=O)N[C@H]1CCCC[C@@H]1C(=O)N[C@H]1CCCC[C@@H]1C(=O)N[C@H](CC(=O)N[C@H]1CCCC[C@@H]1C(N)=O)Cc1ccccc1)NC(=O)[C@H]1CCCC[C@@H]1N [H14 AF] | 333 | 121 | 13 | 45 | 454 | 483 | 5 | 354 |  |  | 
2 |  |  |  | NC(=O)[C@H]1CCCC[C@@H]1NC(=O)C[C@H](Cc1ccccc1)NC(=O)[C@H]1CCCC[C@@H]1NC(=O)[C@H]1CCCC[C@@H]1NC(=O)C[C@H](Cc1ccccc1)NC(=O)[C@H]1CCCC[C@@H]1N [H14 FF] | 108 | 75 | 12 | 16 | 312 | 134 | 1.2 | 180 | 47 |  | 
3 |  |  |  | CSCC[C@@H](CC(=O)N[C@H]1CCCC[C@@H]1C(N)=O)NC(=O)[C@H]1CCCC[C@@H]1NC(=O)[C@H]1CCCC[C@@H]1NC(=O)C[C@H](Cc1ccccc1)NC(=O)[C@H]1CCCC[C@@H]1N [H14 FM] | 250 | 284 | 22 | 19 | 454 | 225 | 2 | 352 | 109 |  | 
4 |  |  |  | NC(=O)[C@H]1CCCC[C@@H]1NC(=O)C[C@H](Cc1ccc(O)cc1)NC(=O)[C@H]1CCCC[C@@H]1NC(=O)[C@H]1CCCC[C@@H]1NC(=O)C[C@H](Cc1ccccc1)NC(=O)[C@H]1CCCC[C@@H]1N [H14 FY] | 395 | 214 | 57 | 96 | 231 | 92 | 3 | 146 |  |  | 
5 |  |  |  | NC(=O)CC[C@@H](CC(=O)N[C@H]1CCCC[C@@H]1C(=O)N[C@H]1CCCC[C@@H]1C(=O)N[C@H](CC(=O)N[C@H]1CCCC[C@@H]1C(N)=O)Cc1c[nH]c2ccccc12)NC(=O)[C@H]1CCCC[C@@H]1N [H14 QW] | 183 | 169 |  | 79 | 341 | 143 | 27 | 473 | 168 |  | 
6 | 324 |  |  | N=C(N)NCCC[C@@H](CC(=O)N[C@H]1CCCC[C@@H]1C(=O)N[C@H]1CCCC[C@@H]1C(=O)N[C@H](CC(=O)N[C@H]1CCCC[C@@H]1C(N)=O)Cc1ccc(O)cc1)NC(=O)[C@H]1CCCC[C@@H]1N [H14 RY] |  |  | 112 | 40 |  |  | 16 |  |  |  | 
7 |  |  |  | NC(=O)[C@H]1CCCC[C@@H]1NC(=O)C[C@H](Cc1c[nH]c2ccccc12)NC(=O)[C@H]1CCCC[C@@H]1NC(=O)[C@H]1CCCC[C@@H]1NC(=O)C[C@H](CO)NC(=O)[C@H]1CCCC[C@@H]1N [H14 SW] | 177 | 151 | 179 | 79 | 265 | 73 | 23 | 458 |  |  | 
8 | 473 | binds | does not | CC[C@H](C)[C@@H](CC(=O)N[C@H]1CCCC[C@@H]1C(N)=O)NC(=O)[C@H]1CCCC[C@@H]1NC(=O)[C@H]1CCCC[C@@H]1NC(=O)C[C@@H](NC(=O)[C@H]1CCCC[C@@H]1N)[C@@H](C)O [H14 TI] | 266 | 175 | 7 | 183 |  |  | 69 |  |  | high | low
9 | 473 |  |  | CC(C)C[C@@H](CC(=O)N[C@H]1CCCC[C@@H]1C(N)=O)NC(=O)[C@H]1CCCC[C@@H]1NC(=O)[C@H]1CCCC[C@@H]1NC(=O)C[C@@H](NC(=O)[C@H]1CCCC[C@@H]1N)[C@@H](C)O [H14 TL] | 266 | 175 | 7 | 183 |  |  | 69 |  |  |  | 
10 | 356 |  |  | CC(C)[C@@H](CC(=O)N[C@H]1CCCC[C@@H]1C(N)=O)NC(=O)[C@H]1CCCC[C@@H]1NC(=O)[C@H]1CCCC[C@@H]1NC(=O)C[C@@H](NC(=O)[C@H]1CCCC[C@@H]1N)C(C)C [H14 VV] |  | 244 | 3 | 73 |  |  | 7 | 198 |  |  | 
11 |  |  |  | CC(C)[C@@H](CC(=O)N[C@H]1CCCC[C@@H]1C(=O)N[C@H]1CCCC[C@@H]1C(=O)N[C@H](CC(=O)N[C@H]1CCCC[C@@H]1C(N)=O)Cc1c[nH]c2ccccc12)NC(=O)[C@H]1CCCC[C@@H]1N [H14 VW] | 211 | 98 | 11 | 16 | 452 | 221 | 13 | 60 | 153 |  | 
12 |  |  |  | NC(=O)[C@H]1CCCC[C@@H]1NC(=O)C[C@H](Cc1ccccc1)NC(=O)[C@H]1CCCC[C@@H]1NC(=O)[C@H]1CCCC[C@@H]1NC(=O)C[C@H](Cc1c[nH]c2ccccc12)NC(=O)[C@H]1CCCC[C@@H]1N [H14 WF] | 59 | 38 | 10 | 14 | 106 | 62 | 4 | 177 | 29 |  | 
13 |  |  |  | CSCC[C@@H](CC(=O)N[C@H]1CCCC[C@@H]1C(N)=O)NC(=O)[C@H]1CCCC[C@@H]1NC(=O)[C@H]1CCCC[C@@H]1NC(=O)C[C@H](Cc1c[nH]c2ccccc12)NC(=O)[C@H]1CCCC[C@@H]1N [H14 WM] | 305 | 145 | 43 | 45 | 188 | 81 | 1.4 | 125 | 251 |  | 
14 |  |  |  | NC(=O)[C@H]1CCCC[C@@H]1NC(=O)C[C@H](CO)NC(=O)[C@H]1CCCC[C@@H]1NC(=O)[C@H]1CCCC[C@@H]1NC(=O)C[C@H](Cc1c[nH]c2ccccc12)NC(=O)[C@H]1CCCC[C@@H]1N [H14 WS] |  | 467 | 176 | 138 | 352 | 209 | 9 | 434 | 307 |  | 
15 |  |  |  | CC(C)[C@@H](CC(=O)N[C@H]1CCCC[C@@H]1C(N)=O)NC(=O)[C@H]1CCCC[C@@H]1NC(=O)[C@H]1CCCC[C@@H]1NC(=O)C[C@H](Cc1c[nH]c2ccccc12)NC(=O)[C@H]1CCCC[C@@H]1N [H14 WV] | 224 | 143 | 13 | 16 | 268 | 102 | 2 | 116 | 85 |  | 
16 |  |  |  | NC(=O)[C@H]1CCCC[C@@H]1NC(=O)C[C@H](Cc1ccccc1)NC(=O)[C@H]1CCCC[C@@H]1NC(=O)[C@H]1CCCC[C@@H]1NC(=O)C[C@H](Cc1ccc(O)cc1)NC(=O)[C@H]1CCCC[C@@H]1N [H14 YF] | 234 | 162 | 25 | 34 | 400 | 84 | 2 | 149 | 119 | medium | medium
17 |  |  |  | CC(C)[C@@H](CC(=O)N[C@H]1CCCC[C@@H]1C(N)=O)NC(=O)[C@H]1CCCC[C@@H]1NC(=O)[C@H]1CCCC[C@@H]1NC(=O)C[C@H](Cc1ccc(O)cc1)NC(=O)[C@H]1CCCC[C@@H]1N [H14 YV] | 223 | 140 | 23 | 112 | 472 | 212 | 2 | 372 | 448 |  | 
18 |  |  |  | NC(=O)[C@H]1CCCC[C@@H]1NC(=O)C[C@H](Cc1ccc(O)cc1)NC(=O)[C@H]1CCCC[C@@H]1NC(=O)[C@H]1CCCC[C@@H]1NC(=O)C[C@H](Cc1ccc(O)cc1)NC(=O)[C@H]1CCCC[C@@H]1N [H14 YY] |  | 375 | 70 | 121 | 298 | 114 | 7 | 393 |  |  | 

Reference: PMC8162404, “Proteomimetic surface fragments distinguish targets by function” (Chemical Science, 2020)
